Test results published in the NIST ThermoML archive (doi:10.1021/je050162g).
Numbers after ± are expanded uncertainties.

What was measured:
[1] = Liquid; for viscosity / speed of sound: 101 kPa; for viscosity: Capillary tube (Ostwald / Ubbelohde) method; for speed of sound: Linear variable-path acoustic interferometer; for mass density: 101.33 kPa, Pycnometric method
[2] = xn = mol fraction of the nth substance listed; conditions: 101 kPa, Liquid, x1 = 1; for viscosity: Capillary tube (Ostwald / Ubbelohde) method; for excess molar volume: Direct dilatometry; for speed of sound: Linear variable-path acoustic interferometer

Compound | viscosity ([1]; 303.15 K) | speed of sound ([1]; 303.15 K) | mass density ([1]; 303.15 K) | viscosity ([1]; 308.15 K) | speed of sound ([1]; 308.15 K) | mass density ([1]; 308.15 K) | viscosity ([1]; 313.15 K) | speed of sound ([1]; 313.15 K) | mass density ([1]; 313.15 K) | vapor or sublimation pressure ([1]; 344.68 K) | vapor or sublimation pressure ([1]; 410 K) | viscosity ([2]; 303.15 K) | excess molar volume ([2]; 303.15 K) | speed of sound ([2]; 303.15 K) | viscosity ([2]; 308.15 K) | excess molar volume ([2]; 308.15 K) | speed of sound ([2]; 308.15 K) | viscosity ([2]; 313.15 K) | excess molar volume ([2]; 313.15 K) | speed of sound ([2]; 313.15 K)
C=COC(C)=O [vinyl acetate] | 0.384 ± 0.012 mPa·s | 1095.9 ± 5.2 m/s | 918 ± 6.8 kg/m3 | 0.361 ± 0.011 mPa·s | 1072.5 ± 5.1 m/s | 904.2 ± 6.7 kg/m3 | 0.332 ± 0.011 mPa·s | 1055.7 ± 5.1 m/s | 891.8 ± 6.7 kg/m3 | 97.3 ± 3 kPa |  |  |  |  |  |  |  |  |  | 
Cc1ccc(C)cc1 [1,4-dimethylbenzene] | 0.566 ± 0.016 mPa·s | 1283.7 ± 5.2 m/s | 852.3 ± 2.3 kg/m3 | 0.537 ± 0.015 mPa·s | 1271 ± 5.2 m/s | 847.9 ± 2.3 kg/m3 | 0.513 ± 0.015 mPa·s | 1260 ± 5.2 m/s | 843.6 ± 2.3 kg/m3 |  | 97.3 ± 3 kPa |  |  |  |  |  |  |  |  | 
Cc1ccc(C)cc1 [1,4-dimethylbenzene] + C=COC(C)=O |  |  |  |  |  |  |  |  |  |  |  | 0.566 ± 0.016 mPa·s | 0 ± 6e-09 m3/mol | 1283.7 ± 5.2 m/s | 0.537 ± 0.015 mPa·s | 0 ± 6e-09 m3/mol | 1271 ± 5.2 m/s | 0.513 ± 0.015 mPa·s | 0 ± 6e-09 m3/mol | 1260 ± 5.2 m/s
